Reference: patent US8426386B2, “NK1 receptor antagonist composition” (Lion Corporation, priority 2006, dated 2013)

Test system: NK1 receptor
Assay: NK1 Receptor Antagonism Assay (calcium imaging, substance P stimulation)
Format: cell-based, human
Conditions: for Efficacy (NK1 receptor antagonistic activity grade): substance P 100 μM; for effect as the NK1 receptor antagonist (in words): summary of Table 1
Excerpt: [Performance Evaluation Test] NK1 Receptor Antagonism Assay
In this test, maltose, maltotriose, maltotetraose, maltopentaose, maltohexaose and maltoheptaose were purchased from SIGMA, isomaltose, isomaltotriose, isomaltotetraose, isomaltopentaose, isomaltohexaose and isomaltoheptaose were purchased from Seikagaku Corporation, and four types of oligosaccharides-1-kestose, fructofranosylnystose, nystose and galactotetraose—were purchased from Wako Pure Chemicals Industries Ltd. Each oligosaccharide was diluted with saline, and used.
In order to transiently express a cloned human NK1 receptor in HEK293, cDNA of the human NK1 receptor was cut out from pCDM8 (Invitrogen), and cloned in an expression vector pCDM9 derived by inserting an ampicillin resistant gene (BLUESCRIPT, nucleotides 1973 to 2964 from SK+) at a SacII site.
HEK293 cells were seeded at 1×10^5 cells in a Falcon dish (diameter: 3.5 cm) using α-MEM medium (Gibco) containing 10% bovine fetal serum, and cultured in a 5% CO2 incubator at 37° C. overnight. Then, 20 μg of the expression vector was transfected using Transfection Reagent FuGENE6 (Roche) according to attached instructions, and the transfectants were incubated at 37° C. for 3 days and assayed by a calcium imaging method.
According to Renganathan et al's method (Renganathan M et al., J. Neurophysiol., 84(2), […] (2000)), nerve cells were dispersed and isolated from spinal dorsal root ganglion in a wild type mouse, and 1×10^5 thereof were seeded in a 24-well plate coated with poly-L-lysine. The cells were cultured in 90% DMEM medium (GIBCO) supplemented with 10% bovine fetal serum, 2 mM glutamine, 100 U/mL of penicillin/streptomycin, 100 ng/mL of NGF (SIGMA) and 5 μM cytosine arabinoside (SIGMA) under 5% CO2 at 37° C. The cells were cultured for 1 to 3 weeks, and subsequently subjected to a calcium imaging analysis. A half of the nerve cells was identified to be positive for the NK1 receptor by staining the nerve cells derived from spinal dorsal root ganglion in the wild type mouse with an anti-NK1 receptor antibody (supplied from CHEMICON International).
The cells which express the NK1 receptor transiently or constitutively were subjected to measurement using a high resolution digital B/W cooling CCD camera (ORCA supplied from Hamamatsu Photonics K.K.), and their images were analyzed using an analysis software (AQUA COSMOS supplied from Hamamatsu Photonics K.K.). When the cells were labeled for calcium, Fluo4-AM (supplied from Molecular Probe) was used as a calcium sensitive dye. Fifty μg of Fluo4-AM was dissolved in 400 μL of DMSO in a vial, 4 μL of Pluronic F-127 (Molecular Probe) was added and mixed, and then 4 mL of OPTI-MEM (GIBCO) was added thereto. The calcium sensitive dye solution thus prepared was added to the cells, which were then incubated at 37° C. for 60 minutes. An agonist, an antagonist and samples to be evaluated were prepared at concentrations which were 10 times higher than assay concentrations, and analyzed by adding a one tenth volume of the cell suspension upon analysis. All reagents and an assay temperature were kept at 37° C. For the cells transfected transiently, YFP reporter DNA fluorescence (excitation: 490 nm) was used for identifying the transfected cells. Upon measurement, a fluorescence intensity obtained by initially imaging the untreated cells was made an initial value. After passing one minute, a change of calcium/fluorescence intensity in the sample to be evaluated at the desired concentration was monitored with an interval of one second before and after the addition (2 to 5 minutes). Subsequently, substance P was added, and immediately after (2 to 5 minutes), an antagonistic activity of the sample to be evaluated was determined by monitoring the change of intracellular calcium concentrations as the change of the fluorescence intensities with the interval of one second. […]

[1] = evaluated concentration 1000 ppm

Row | Compound | Efficacy (NK1 receptor antagonistic activity grade) [1] | effect as the NK1 receptor antagonist (in words) | efficacy at a low concentration (in words) (0.1 ppm) | Efficacy (NK1 receptor antagonistic activity grade) (evaluated concentration 0.1 ppm) | Efficacy (NK1 receptor antagonistic activity grade) (evaluated concentration 1 ppm) | Efficacy (NK1 receptor antagonistic activity grade) (evaluated concentration 10 ppm) | Efficacy (NK1 receptor antagonistic activity grade) (evaluated concentration 100 ppm)
1 | OC[C@H]1O[C@H](OC[C@H]2O[C@H](OC[C@H]3O[C@H](OC[C@H]4O[C@H](OC[C@H]5O[C@H](OC[C@H]6O[C@H](OC[C@H]7OC(O)[C@H](O)[C@@H](O)[C@@H]7O)[C@H](O)[C@@H](O)[C@@H]6O)[C@H](O)[C@@H](O)[C@@H]5O)[C@H](O)[C@@H](O)[C@@H]4O)[C@H](O)[C@@H](O)[C@@H]3O)[C@H](O)[C@@H](O)[C@@H]2O)[C@H](O)[C@@H](O)[C@@H]1O (some centres unmarked) [Isomaltoheptaose, isomaltoheptaose, reference compound] | D (Ineffective: the antagonistic activity was less than 65%, or the stimulating or agonistic activity of the sample was strong.) | no NK1 receptor antagonistic activity was observed at all | – | – | – | – | –
2 | OC[C@H]1O[C@H](O[C@H]2[C@H](O)[C@@H](O)[C@@H](O[C@H]3[C@H](O)[C@@H](O)[C@@H](O[C@H]4[C@H](O)[C@@H](O)C(O)O[C@@H]4CO)O[C@@H]3CO)O[C@@H]2CO)[C@H](O)[C@@H](O)[C@@H]1O (some centres unmarked) [Maltotetraose, maltotetraose] | A (Complete response: the antagonistic activity was 75% or more and much more excellent performance than in the positive control was shown.) | high effect | high efficacy | B (Effective: the antagonistic activity was 65% or more and less than 75% and the more excellent performance than in the positive control was shown.) | A (Complete response: the antagonistic activity was 75% or more and much more excellent performance than in the positive control was shown.) | A (Complete response: the antagonistic activity was 75% or more and much more excellent performance than in the positive control was shown.) | A (Complete response: the antagonistic activity was 75% or more and much more excellent performance than in the positive control was shown.)
3 | OC[C@H]1O[C@H](OC[C@H]2O[C@H](OC[C@H]3O[C@H](OC[C@H]4OC(O)[C@H](O)[C@@H](O)[C@@H]4O)[C@H](O)[C@@H](O)[C@@H]3O)[C@H](O)[C@@H](O)[C@@H]2O)[C@H](O)[C@@H](O)[C@@H]1O (some centres unmarked) [Isomaltotetraose, isomaltotetraose, reference compound] | D (Ineffective: the antagonistic activity was less than 65%, or the stimulating or agonistic activity of the sample was strong.) | no NK1 receptor antagonistic activity was observed at all | – | – | – | – | –
4 | OC[C@H]1O[C@@](CO)(OC[C@@]2(O[C@H]3O[C@H](CO)[C@@H](O)[C@H](O)[C@H]3O)O[C@H](CO)[C@@H](O)[C@@H]2O)[C@@H](O)[C@@H]1O [Example 1-Kestose, 1-kestose, reference compound] | D (Ineffective: the antagonistic activity was less than 65%, or the stimulating or agonistic activity of the sample was strong.) | no NK1 receptor antagonistic activity was observed at all | – | – | – | – | –
5 | OC[C@H]1O[C@H](OC[C@H]2O[C@H](OC[C@H]3O[C@H](OC[C@H]4O[C@H](OC[C@H]5OC(O)[C@H](O)[C@@H](O)[C@@H]5O)[C@H](O)[C@@H](O)[C@@H]4O)[C@H](O)[C@@H](O)[C@@H]3O)[C@H](O)[C@@H](O)[C@@H]2O)[C@H](O)[C@@H](O)[C@@H]1O (some centres unmarked) [Isomaltopentaose, isomaltopentaose, reference compound] | D (Ineffective: the antagonistic activity was less than 65%, or the stimulating or agonistic activity of the sample was strong.) | no NK1 receptor antagonistic activity was observed at all | – | – | – | – | –
6 | OC[C@H]1O[C@H](OC[C@H]2O[C@H](OC[C@H]3OC(O)[C@H](O)[C@@H](O)[C@@H]3O)[C@H](O)[C@@H](O)[C@@H]2O)[C@H](O)[C@@H](O)[C@@H]1O (some centres unmarked) [Isomaltotriose, isomaltotriose, reference compound] | D (Ineffective: the antagonistic activity was less than 65%, or the stimulating or agonistic activity of the sample was strong.) | no NK1 receptor antagonistic activity was observed at all | – | – | – | – | –
